ChEMBL document CHEMBL1201862, “PubChem BioAssay data set” (2004)
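Five compound concentrations were applied to cells in 96-well plates for 48 hours; endpoints were derived by simple linear interpolation of the resulting dose-response curve. The concentration for 50% growth inhibition is given as GI50.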 Activity calls are given as the source filed them. Rule as the data show it: active = GI50 up to about 1.1 µM and inactive = higher.

Assays:
Assay in all cases: NCI-60 cell line screen, 48 h
CCRF-CEM = tested on: CCRF-CEM
EKVX = tested on: EKVX
HCC 2998 = tested on: HCC 2998
HOP-62 = tested on: HOP-62
HOP-92 = tested on: HOP-92
Hs-578T = tested on: Hs-578T
LOX IMVI = tested on: LOX IMVI
MCF7 = tested on: MCF7
MDA-N = tested on: MDA-N
NCI-H226 = tested on: NCI-H226
NCI-H522 = tested on: NCI-H522
OVCAR-5 = tested on: OVCAR-5
RPMI-8226 = tested on: RPMI-8226
SF-268 = tested on: SF-268
SN12C = tested on: SN12C
SR = tested on: SR
SW-620 = tested on: SW-620
TK-10 = tested on: TK-10
HL-60 = tested on: HL-60
NCI-H460 = tested on: NCI-H460

Measured: GI50

Nc1ccccc1/N=N/c1c(S(=O)(=O)O)cc2cc(S(=O)(=O)O)cc(O)c2c1O
inactive: CCRF-CEM > 100 µM | EKVX > 100 µM | HCC 2998 > 100 µM | HOP-62 > 100 µM | HOP-92 > 100 µM | Hs-578T > 100 µM | LOX IMVI > 100 µM | MCF7 > 100 µM | MDA-N 32.4 µM | NCI-H226 > 100 µM | NCI-H522 > 100 µM | OVCAR-5 > 100 µM | RPMI-8226 > 100 µM | SF-268 > 100 µM | SN12C 11.2 µM | SR > 100 µM | SW-620 > 100 µM | TK-10 > 100 µM

Cc1ccc(-c2cc(N)n(-c3nc4c([nH]3)c(=O)n(C)c(=O)n4C)n2)cc1
inactive: CCRF-CEM 2.64 µM | EKVX 3.09 µM | HCC 2998 7.67 µM | HL-60 5.04 µM | HOP-62 3.28 µM | HOP-92 12.8 µM | Hs-578T 23 µM | MCF7 6.78 µM | MDA-N 5.98 µM | NCI-H226 6.71 µM | NCI-H460 1.71 µM | NCI-H522 29 µM | OVCAR-5 8.05 µM | RPMI-8226 6.81 µM | SF-268 3.59 µM | SN12C 5.32 µM | SR 2.43 µM | TK-10 9.84 µM

Nc1nc(Cl)nc2c1ncn2C1CCC(COP(=O)(O)OP(=O)(O)OP(=O)(O)O)O1 (centres undefined)
inactive: CCRF-CEM 44.3 µM | EKVX 40.1 µM | HCC 2998 28.1 µM | HL-60 28.5 µM | HOP-62 19.2 µM | HOP-92 23.7 µM | Hs-578T 29.7 µM | LOX IMVI 28.3 µM | MCF7 29.4 µM | MDA-N 38 µM | NCI-H226 27.7 µM | NCI-H460 41.6 µM | NCI-H522 25.8 µM | OVCAR-5 22.8 µM | SF-268 47.9 µM | SN12C 38.8 µM | SR 23.1 µM | SW-620 32.4 µM | TK-10 25.1 µM

CC1CC2OC(=N)C1(C#N)C2(C#N)C#N (centres undefined)
inactive: CCRF-CEM 4.94 µM | EKVX 16.6 µM | HCC 2998 19.5 µM | HOP-62 16.8 µM | HOP-92 17.9 µM | Hs-578T 33.8 µM | LOX IMVI 14.7 µM | MCF7 28 µM | MDA-N 16.3 µM | NCI-H226 38.4 µM | NCI-H522 13.5 µM | OVCAR-5 21.6 µM | RPMI-8226 16.4 µM | SF-268 21.8 µM | SN12C 19.5 µM | SR 25.3 µM | SW-620 18.2 µM | TK-10 26.8 µM

CCOC(=O)c1cn2c(n1)sc1c(Cl)c(Cl)ccc12
inactive: CCRF-CEM 4.97 µM | EKVX 31 µM | HCC 2998 30.7 µM | HOP-62 15.5 µM | HOP-92 24.5 µM | Hs-578T 5.33 µM | LOX IMVI 13.2 µM | MCF7 11.1 µM | MDA-N 1.56 µM | NCI-H226 14.8 µM | NCI-H460 > 60.1 µM | NCI-H522 4.11 µM | OVCAR-5 30.2 µM | RPMI-8226 5.02 µM | SF-268 16.9 µM | SN12C 3.45 µM | SR 2.55 µM | SW-620 5.13 µM | TK-10 24.4 µM

COc1cc2c3c(c1)CCCN3CCC2
inactive: CCRF-CEM > 10 µM | EKVX > 10 µM | HCC 2998 > 10 µM | HL-60 > 10 µM | HOP-62 > 10 µM | HOP-92 > 10 µM | Hs-578T > 10 µM | LOX IMVI > 10 µM | MCF7 > 10 µM | MDA-N > 10 µM | NCI-H226 > 10 µM | NCI-H460 > 10 µM | NCI-H522 > 10 µM | RPMI-8226 > 10 µM | SF-268 > 10 µM | SN12C > 10 µM | SR > 10 µM | SW-620 > 10 µM | TK-10 > 10 µM

Cc1cc(C)cc(Nc2cc(O)nc(O)n2)c1
inactive: CCRF-CEM > 100 µM | EKVX > 100 µM | HCC 2998 > 100 µM | HL-60 > 100 µM | HOP-62 > 100 µM | HOP-92 > 100 µM | Hs-578T > 100 µM | LOX IMVI > 100 µM | MCF7 > 100 µM | MDA-N > 100 µM | NCI-H226 58.3 µM | NCI-H460 > 100 µM | OVCAR-5 > 100 µM | RPMI-8226 > 100 µM | SF-268 > 100 µM | SN12C > 100 µM | SR > 100 µM | SW-620 > 100 µM | TK-10 > 100 µM

C=CCN1C[C@H](C)N([C@@H](c2ccc(C(=O)N3CCCCC3)cc2)c2cccc(OC)c2)C[C@H]1C
inactive: CCRF-CEM 21.5 µM | EKVX 44.4 µM | HCC 2998 31.6 µM | HL-60 1.35 µM | HOP-62 > 100 µM | HOP-92 98.6 µM | Hs-578T 86.7 µM | LOX IMVI 14.4 µM | MCF7 30.1 µM | MDA-N 34.5 µM | NCI-H226 45.4 µM | NCI-H460 31 µM | NCI-H522 21.7 µM | OVCAR-5 58.1 µM | SF-268 52.7 µM | SN12C 43 µM | SR 16.1 µM | TK-10 40 µM

C=CCOC(=O)N1[C@H]2C#C/C=C\C#C[C@]3(O)C(=O)C[C@H](C)[C@]24O[C@]43C2=CC(=O)C=CC21OC (some centres undefined)
inactive: CCRF-CEM 16.8 µM | EKVX 44 µM | HCC 2998 26.5 µM | HL-60 30.8 µM | HOP-62 40.2 µM | HOP-92 38 µM | Hs-578T 49 µM | MCF7 16.9 µM | MDA-N 28.6 µM | NCI-H226 30.5 µM | NCI-H460 13.9 µM | NCI-H522 18.6 µM | OVCAR-5 35.2 µM | RPMI-8226 21.2 µM | SF-268 50.6 µM | SN12C 25 µM | SR 4.62 µM | SW-620 32.8 µM | TK-10 18.4 µM

CC1=N[C@@](C)(C2CC3C=CC2C3=O)COC1=O (some centres undefined)
inactive: CCRF-CEM > 100 µM | EKVX > 100 µM | HCC 2998 > 100 µM | HL-60 > 100 µM | HOP-62 > 100 µM | HOP-92 > 100 µM | Hs-578T > 100 µM | MCF7 > 100 µM | MDA-N > 100 µM | NCI-H226 > 100 µM | NCI-H460 > 100 µM | NCI-H522 > 100 µM | OVCAR-5 > 100 µM | SF-268 > 100 µM | SN12C > 100 µM | SR > 100 µM | SW-620 > 100 µM | TK-10 > 100 µM

CC(=O)OCC1OC(NC(=S)Nn2c(-c3ccccc3)nc3ccccc3c2=O)C(OC(C)=O)C(OC(C)=O)C1OC(C)=O (centres undefined)
inactive: CCRF-CEM 38.5 µM | EKVX > 100 µM | HCC 2998 97.9 µM | HL-60 70.8 µM | HOP-62 97.7 µM | HOP-92 38.4 µM | Hs-578T 78.7 µM | LOX IMVI > 100 µM | MCF7 85.9 µM | MDA-N > 100 µM | NCI-H226 14.7 µM | NCI-H460 > 100 µM | NCI-H522 45.5 µM | OVCAR-5 > 100 µM | RPMI-8226 > 100 µM | SF-268 > 100 µM | SN12C 93.1 µM | SR 35.6 µM | SW-620 > 100 µM
